Reference: patent publication US20200315540A1, “TREATMENT OF A DISEASE OF THE GASTROINTESTINAL TRACT WITH AN IL-1 INHIBITOR” (Progenity, Inc., priority 2016, published 2020)

Test: Tissue, plasma and GI content pharmacokinetics of tacrolimus, oral vs intra-cecal ingestible device delivery in swine
Format: in vivo
Conditions: intra-cecally vs orally administered, 12 hours post-dose, FIG. 76
Description: No further randomization procedure was employed.
Animals in Group 1 received an ingestible device containing 0.8 mL of vehicle solution (80% alcohol, 20% HCO-60). Animals in Group 2 received orally […] liquid formulation of tacrolimus at 4 mg/0.8 mL per animal (Prograf: 5 mg/mL). Animals in Group 3 received intra-cecally an ingestible device containing tacrolimus at 1 mg in 0.8 mL per ingestible device. Animals in Group 4 received intra-cecally an ingestible device containing tacrolimus at 2 mg in 0.8 mL per ingestible device. Animals in Group 5 received intra-cecally an ingestible device containing tacrolimus at 4 mg in 0.8 mL per ingestible device. […]
Approximately 200˜400 mg of rectal content were collected, if available, with a fecal swab (Copan Diagnostics Nylon Flocked Dry Swabs, 502CS01). The fecal swab was pre-weighed and weighed after collection in the collection tube (Sterile Tube and Cap No Media, PFPM913S), and the sample weight was recorded. […]
For tissue necropsy, small intestine fluid and cecal fluid were collected separately from all the animals into two separate square plastic bottles, and stored at −20° C. The length and diameter of the cecum and the colon was measured from one animal in each group and recorded for reference. […] All samples were weighed, and the tissue sample weights were recorded. […]

mean concentration in the cecum tissue and the proximate colon tissue: higher
Compound: C=CC[C@@H]1/C=C(\C)C[C@H](C)C[C@H](OC)[C@H]2O[C@@](O)(C(=O)C(=O)N3CCCC[C@H]3C(=O)O[C@H](/C(C)=C/[C@@H]3CC[C@@H](O)[C@H](OC)C3)[C@H](C)[C@@H](O)CC1=O)[C@H](C)C[C@@H]2OC [tacrolimus]
